These results are taken from patent US11001577B2, “Pesticidally active azetidine sulfones amide isoxazoline derivatives” (SYNGENTA PARTICIPATIONS AG, priority 2016, dated 2021).

Like-named read-outs stand apart in the source and are kept apart here.

Common to all, as to assay type: in vivo
One series deals with Diabrotica balteata. The series can be described thus: Diabrotica balteata (corn root worm), maize sprouts sprayed. The note with it: 96 h, read-out: effect in at least one of the two categories (mortality or growth inhibition); for percent effect (mortality or growth inhibition) at 200 ppm: application rate 200 ppm, L2 larvae, 4 days after infestation. Here is the method:
Diabrotica balteata (Corn Root Worm)
Maize sprouts placed onto an agar layer in 24-well microtiter plates were treated with aqueous test solutions prepared from 10,000 ppm DMSO stock solutions by spraying. After drying, the plates were infested with L2 larvae (6 to 10 per well). The samples were assessed for mortality and growth inhibition in comparison to untreated samples 4 days after infestation.

The test system of series [1] is Plutella xylostella. Nature of the series: Plutella xylostella (diamond back moth), artificial diet. The note with it: 120 h, read-out: effect in at least one of the two categories (mortality or growth inhibition); for percent effect (mortality or growth inhibition) at 200 ppm: application rate 200 ppm, L2 larvae, 5 days after infestation. Here is the method: Plutella xylostella (Diamond Back Moth)
24-well microtiter plates with artificial diet were treated with aqueous test solutions prepared from 10,000 ppm DMSO stock solutions by pipetting. After drying, the plates were infested with L2 larvae (10 to 15 per well). The samples were assessed for mortality and growth inhibition in comparison to untreated samples 5 days after infestation.

The next series relates to Euschistus heros. The series can be described thus: Euschistus heros (neotropical brown stink bug), soybean leaves sprayed. The note with it: 120 h, read-out: effect in at least one of the two categories (mortality or growth inhibition); for percent effect (mortality or growth inhibition) at 200 ppm: application rate 200 ppm, N2 nymphs, 5 days after infestation. Here is the method:
Euschistus heros (Neotropical Brown Stink Bug)
Soybean leaves on agar in 24-well microtiter plates were sprayed with aqueous test solutions prepared from 10,000 ppm DMSO stock solutions. After drying the leaves were infested with N2 nymphs. The samples were assessed for mortality and growth inhibition in comparison to untreated samples 5 days after infestation.

The test system of series [2] is Thrips tabaci. The series can be described thus: Thrips tabaci (onion thrips) feeding/contact activity. The note with it: 144 h. The protocol:
(§1) Thrips tabaci (Onion Thrips) Feeding/Contact Activity
Sunflower leaf discs were placed on agar in 24-well microtiter plates and sprayed with aqueous test solutions prepared from 10,000 ppm DMSO stock solutions. After drying the leaf discs were infested with a thrips population of mixed ages. The samples were assessed for mortality 6 days after infestation.

Series [3] relates to Spodoptera littoralis. The series can be described thus: Spodoptera littoralis (Egyptian cotton leaf worm), cotton leaf discs. The note with it: foliar, 72 h; for percent control (mortality, anti-feedant effect or growth inhibition) at 200 ppm: application rate 200 ppm, L1 larvae, 3 days after infestation. Here is the method:
Spodoptera littoralis (Egyptian Cotton Leaf Worm)
Cotton leaf discs were placed onto agar in 24-well microtiter plates and sprayed with aqueous test solutions prepared from 10,000 ppm DMSO stock solutions. After drying the leaf discs were infested with five L1 larvae. The samples were assessed for mortality, anti-feeding effect, and growth inhibition in comparison to untreated samples 3 days after infestation. Control of Spodoptera littoralis by a test sample is given when at least one of the categories mortality, anti-feedant effect, and growth inhibition is higher than the untreated sample.

In series [4] the test system is Tetranychus urticae. Nature of the series: Tetranychus urticae (two-spotted spider mite) feeding/contact activity. The note with it: 192 h, read-out: mortality on mixed population (mobile stages). The protocol:
(§2) Tetranychus urticae (Two-Spotted Spider Mite):Feeding/Contact Activity
Bean leaf discs on agar in 24-well microtiter plates were sprayed with aqueous test solutions prepared from 10,000 ppm DMSO stock solutions. After drying the leaf discs were infested with a mite population of mixed ages. The samples were assessed for mortality on mixed population (mobile stages) 8 days after infestation.

Series [5] has as its system Thrips tabaci. The series can be described thus: Comparative Example C4: Thrips tabaci feeding/contact activity. The note with it: 6 days after infestation. The protocol: (§3) Compounds of the invention were tested alongside a number of compounds from WO 2013/026931.
as §1
Sunflower leaf discs were placed on agar in 24-well microtiter plates and sprayed with aqueous test solutions prepared from 10,000 ppm DMSO stock solutions. After drying the leaf discs were infested with a thrips population of mixed ages. The samples were assessed for mortality (%) 6 days after infestation at the various application rates.

Series [6] deals with Plutella xylostella. The series can be described thus: Comparative Example C1: Plutella xylostella feeding/contact activity. The protocol:
as §3
Plutella xylostella (Diamond Back Moth):Feeding/Contact Activity
24-well microtiter plates with artificial diet were treated with aqueous test solutions prepared from 10,000 ppm DMSO stock solutions by pipetting. After drying, the plates were infested with L2 larvae (10 to 15 per well). The samples were assessed for mortality (%) 5 days after infestation at the various application rates

For series [7], the system named is Tetranychus urticae. The series can be described thus: Comparative Example C3: Tetranychus urticae feeding/contact activity. The note with it: mobile stages, 8 days after infestation. Here is the method:
as §3, §2
Bean leaf discs on agar in 24-well microtiter plates were sprayed with aqueous test solutions prepared from 10,000 ppm DMSO stock solutions. After drying the leaf discs were infested with a mite population of mixed ages. The samples were assessed for mortality on mixed population (%) (mobile stages) 8 days after infestation at the various application rates.

The test system of series [8] is Spodoptera littoralis. The series can be described thus: Comparative Example C2: Spodoptera littoralis feeding/contact activity. The conditions noted are these: 3 days after infestation. Here is the method: as §3
Spodoptera littoralis (Egyptian Cotton Leaf Worm):Feeding/Contact Activity
Cotton leaf discs were placed onto agar in 24-well microtiter plates and sprayed with aqueous test solutions prepared from 10,000 ppm DMSO stock solutions. After drying the leaf discs were infested with five L1 larvae. The samples were assessed for mortality (%) 3 days after infestation at the various application rates.

A further series deals with Myzus persicae. Nature of the series: Myzus persicae (green peach aphid) feeding/contact activity. The note with it: 144 h. Here is the method: Myzus persicae (Green Peach Aphid):Feeding/Contact Activity
Sunflower leaf discs were placed onto agar in a 24-well microtiter plate and sprayed with aqueous test solutions prepared from 10,000 ppm DMSO stock solutions. After drying, the leaf discs were infested with an aphid population of mixed ages. The samples were assessed for mortality 6 days after infestation.

Setting [9] is: application rate 200 ppm, mixed ages, 6 days after infestation, read-out: mortality.
[10] abbreviates: application rate 200 ppm, 8 days after infestation.

As usually defined, the mortality is the percentage killed. `Cc1cc(C2=NO[C@@](c3cc(Cl)cc(C(F)(F)F)c3)(C(F)(F)F)C2)ccc1C(=O)NC1CN(S(=O)(=O)OCC(F)(F)F)C1` [Compound A18, 2,2,2-trifluoroethyl 3-[[4-[(5S)-5-[3-chloro-5-(trifluoromethyl)phenyl]-5-(trifluoromethyl)-4H-isoxazol-3-yl]-2-methyl-benzoyl]amino]azetidine-1-sulfonate]: the percent effect (mortality or growth inhibition) at 200 ppm in the series with Diabrotica balteata, in the series on Plutella xylostella [1] and in the series with Euschistus heros was at least 80% each time. The mortality at 200 ppm with Thrips tabaci [2] (setting [9]) and in the series on Tetranychus urticae [4] (setting [10]) was at least 80% throughout. For the same compound, the percent control (mortality, anti-feedant effect or growth inhibition) at 200 ppm with Spodoptera littoralis [3] was at least 80%.

`Cc1cc(C2=NO[C@@](c3cc(Cl)cc(Cl)c3)(C(F)(F)F)C2)ccc1C(=O)NC1CN(S(=O)(=O)C2CC2)C1` [Compound A04, N-(1-cyclopropylsulfonylazetidin-3-yl)-4-[(5S)-5-(3,5-dichlorophenyl)-5-(trifluoromethyl)-4H-isoxazol-3-yl]-2-methyl-benzamide]: the percent effect (mortality or growth inhibition) at 200 ppm with Diabrotica balteata, in the series on Plutella xylostella [1] and with Euschistus heros was at least 80% throughout. In the series with Spodoptera littoralis [3], the percent control (mortality, anti-feedant effect or growth inhibition) at 200 ppm was at least 80%. The mortality at 200 ppm with Tetranychus urticae [4] (setting [10]) was at least 80%.

On to `Cc1cc(C2=NOC(c3cc(Cl)cc(Cl)c3)(C(F)(F)F)C2)ccc1C(=O)NC1CN(S(=O)(=O)F)C1` (centres unmarked) [Compound A06], for which the “Thrips tabaci mixed population average mortality (%)” value came to 0% with Thrips tabaci [5] (application rate 0.195 ppm); 100% with Thrips tabaci [5] (application rate 0.781 ppm); 100% in the series with Thrips tabaci [5] (application rate 3.12 ppm); 100% in the series with Thrips tabaci [5] (application rate 12.5 ppm); 100% with Thrips tabaci [5] (application rate 50 ppm); 100% in the series with Thrips tabaci [5] (application rate 200 ppm). Also, the “Plutella xylostella larval average mortality (%)” value in the series on Plutella xylostella [6] (application rate 0.195 ppm) is recorded as 80%; in the series on Plutella xylostella [6] (application rate 0.781 ppm), 100%; with Plutella xylostella [6] (application rate 3.12 ppm), 100%; with Plutella xylostella [6] (application rate 12.5 ppm) it was 100%; with Plutella xylostella [6] (application rate 50 ppm) it was 100%; in the series on Plutella xylostella [6] (application rate 200 ppm) it was 100%. In addition, the “Tetranychus urticae mixed population average mortality (%)” value in the series with Tetranychus urticae [7] (application rate 0.195 ppm) came out at 0%; in the series on Tetranychus urticae [7] (application rate 0.781 ppm) it was 100%; in the series on Tetranychus urticae [7] (application rate 3.12 ppm), 100%; in the series on Tetranychus urticae [7] (application rate 12.5 ppm) it was 100%; in the series with Tetranychus urticae [7] (application rate 50 ppm), 100%; in the series with Tetranychus urticae [7] (application rate 200 ppm), 100%. In addition, the “Spodoptera littoralis larval average mortality (%)” value with Spodoptera littoralis [8] (application rate 0.195 ppm), with Spodoptera littoralis [8] (application rate 0.781 ppm), with Spodoptera littoralis [8] (application rate 3.12 ppm), in the series on Spodoptera littoralis [8] (application rate 12.5 ppm), in the series with Spodoptera littoralis [8] (application rate 50 ppm) and in the series on Spodoptera littoralis [8] (application rate 200 ppm) was 100% throughout.

As to `Cc1cc(C2=NO[C@@](c3cc(Cl)c(F)c(Cl)c3)(C(F)(F)F)C2)ccc1C(=O)NC1CN(S(=O)(=O)NCC(F)(F)F)C1` [Compound A14, 4-[(5S)-5-(3,5-dichloro-4-fluoro-phenyl)-5-(trifluoromethyl)-4H-isoxazol-3-yl]-2-methyl-N-[1-(2,2,2-trifluoroethylsulfamoyl)azetidin-3-yl]benzamide], the percent effect (mortality or growth inhibition) at 200 ppm in the series on Diabrotica balteata, in the series with Plutella xylostella [1] and with Euschistus heros was at least 80% throughout. In addition, the mortality at 200 ppm with Myzus persicae (setting [9]), in the series with Thrips tabaci [2] (setting [9]) and with Tetranychus urticae [4] (setting [10]) was at least 80% throughout. In the series on Spodoptera littoralis [3], this compound yielded a percent control (mortality, anti-feedant effect or growth inhibition) at 200 ppm of at least 80%.

With `Cc1cc(C2=NO[C@@](c3cc(Cl)c(F)c(Cl)c3)(C(F)(F)F)C2)ccc1C(=O)NC1CN(S(N)(=O)=O)C1` [Compound A12, 4-[(5S)-5-(3,5-dichloro-4-fluoro-phenyl)-5-(trifluoromethyl)-4H-isoxazol-3-yl]-2-methyl-N-(1-sulfamoylazetidin-3-yl)benzamide], the percent effect (mortality or growth inhibition) at 200 ppm in the series with Diabrotica balteata, in the series with Plutella xylostella [1] and in the series on Euschistus heros was at least 80% each time. Moreover, the mortality at 200 ppm in the series on Myzus persicae (setting [9]), in the series on Thrips tabaci [2] (setting [9]) and in the series with Tetranychus urticae [4] (setting [10]) was at least 80% each time. The same compound showed a percent control (mortality, anti-feedant effect or growth inhibition) at 200 ppm in the series with Spodoptera littoralis [3] of at least 80%.

Turning to `Cc1cc(C2=NO[C@@](c3cc(Cl)cc(C(F)(F)F)c3)(C(F)(F)F)C2)ccc1C(=O)NC1CN(S(=O)(=O)F)C1` [Compound A10, 3-[[4-[(5S)-5-[3-chloro-5-(trifluoromethyl)phenyl]-5-(trifluoromethyl)-4H-isoxazol-3-yl]-2-methyl-benzoyl]amino]azetidine-1-sulfonyl fluoride], the percent control (mortality or growth inhibition) at 200 ppm in the series on Diabrotica balteata, in the series with Plutella xylostella [1] and in the series on Euschistus heros was at least 80% in each case. Moreover, the mortality at 200 ppm in the series with Myzus persicae was at least 80%; in the series on Thrips tabaci [2], at least 80%; with Spodoptera littoralis [3] (read-out: control (mortality, anti-feedant effect, growth inhibition)) it was at least 80%; in the series on Tetranychus urticae [4], at least 80%.

Take `Cc1cc(C2=NO[C@@](c3cc(Cl)c(F)c(Cl)c3)(C(F)(F)F)C2)ccc1C(=O)NC1CN(S(=O)(=O)N(CC(F)(F)F)CC(F)(F)F)C1` [Compound A13, N-[1-[bis(2,2,2-trifluoroethyl)sulfamoyl]azetidin-3-yl]-4-[(5S)-5-(3,5-dichloro-4-fluoro-phenyl)-5-(trifluoromethyl)-4H-isoxazol-3-yl]-2-methyl-benzamide]: the percent effect (mortality or growth inhibition) at 200 ppm with Diabrotica balteata and in the series on Plutella xylostella [1] was at least 80% throughout. Further, the mortality at 200 ppm with Myzus persicae (setting [9]), in the series with Thrips tabaci [2] (setting [9]) and with Tetranychus urticae [4] (setting [10]) was at least 80% throughout. The percent control (mortality, anti-feedant effect or growth inhibition) at 200 ppm with Spodoptera littoralis [3] is at least 80%.
